{"source": "patent US10463671B2", "about": "“Combination therapy for treating cancer” (Epizyme, Inc., priority 2013, dated 2019)", "system": "glucocorticoid signaling genes in WSU-DLCL2 cells", "assay": "RT2 Glucocorticoid Signaling PCR array", "assay_type": "cell-based", "settings": "WSU cell line, 4 days", "protocol": "Gene expression was normalized to array's B2M and fold change compared to DMSO was calculated using the ΔΔCt method.", "data": [{"smiles": "CCN(c1cc(-c2ccc(CN3CCOCC3)cc2)cc(C(=O)NCc2c(C)cc(C)[nH]c2=O)c1C)C1CCOCC1", "note": "[Compound 44]", "values": [{"measurement": "AK2 Ct Values", "value": 21.365}, {"measurement": "ANXA4 Ct Values", "value": 24.659}, {"measurement": "ARID5B Ct Values", "value": 26.126}, {"measurement": "BCL6 Ct Values", "value": 20.795}, {"measurement": "CEBPB Ct Values", "value": 26.770}, {"measurement": "CREB3L4 Ct Values", "value": 24.392}, {"measurement": "EHD3 Ct Values", "value": 24.270}, {"measurement": "IL6R Ct Values", "value": 33.814}, {"measurement": "MT2A Ct Values", "value": 23.499}, {"measurement": "NFKBIA Ct Values", "value": 23.807}, {"measurement": "PER2 Ct Values", "value": 24.837}, {"measurement": "POU2F2 Ct Values", "value": 22.678}, {"measurement": "RASA3 Ct Values", "value": 23.208}, {"measurement": "RHOB Ct Values", "value": 27.234}, {"measurement": "SLC22A5 Ct Values", "value": 26.640}, {"measurement": "SNTA1 Ct Values", "value": 24.181}, {"measurement": "SPSB1 Ct Values", "value": 26.952}, {"measurement": "TNFAIP3 Ct Values", "value": 26.903}, {"measurement": "TSC22D3 Ct Values", "value": 25.390}, {"measurement": "ZFP36 Ct Values", "value": 25.541}, {"measurement": "ZNF2B1 Ct Values", "value": 23.913}, {"measurement": "RPLP0 Ct Values", "setting": "housekeeping gene", "value": 15.681}, {"measurement": "HPRT1 ΔCT (B2M)", "setting": "housekeeping gene, normalized to B2M", "value": 3.108}, {"measurement": "AMPD3 ΔCT (B2M)", "setting": "normalized to B2M", "value": 7.477}, {"measurement": "GHRHR ΔCT (B2M)", "setting": "normalized to B2M", "value": 20.272}, {"measurement": "GOT1 ΔCT (B2M)", "setting": "normalized to B2M", "value": 4.142}, {"measurement": "SLC10A6 ΔCT (B2M)", "setting": "normalized to B2M", "value": 15.999}, {"measurement": "SLC19A2 ΔCT (B2M)", "setting": "normalized to B2M", "value": 6.440}, {"measurement": "SLC22A5 ΔCT (B2M)", "setting": "normalized to B2M", "value": 6.955}, {"measurement": "ZNF2B1 ΔCT (B2M)", "setting": "normalized to B2M", "value": 4.228}, {"measurement": "B2M ΔCT (B2M)", "setting": "normalizer gene, normalized to B2M", "value": 0.000}, {"measurement": "BCL6 ΔΔCT", "setting": "vs DMSO", "value": "−0.394"}, {"measurement": "CREB1 ΔΔCT", "setting": "vs DMSO", "value": 0.008}, {"measurement": "CREB3L4 ΔΔCT", "setting": "vs DMSO", "value": "−0.915"}, {"measurement": "CREB3 ΔΔCT", "setting": "vs DMSO", "value": "−0.085"}, {"measurement": "DDIT4 ΔΔCT", "setting": "vs DMSO", "value": "−0.060"}, {"measurement": "GOT1 ΔΔCT", "setting": "vs DMSO", "value": 0.708}, {"measurement": "HNRPLL ΔΔCT", "setting": "vs DMSO", "value": "−0.037"}, {"measurement": "IL1RN ΔΔCT", "setting": "vs DMSO", "value": "−4.453"}, {"measurement": "PDP1 ΔΔCT", "setting": "vs DMSO", "value": "−0.380"}, {"measurement": "PIK3R1 ΔΔCT", "setting": "vs DMSO", "value": 0.363}, {"measurement": "POU2F2 ΔΔCT", "setting": "vs DMSO", "value": "−0.680"}, {"measurement": "STAT5A ΔΔCT", "setting": "vs DMSO", "value": "−0.307"}, {"measurement": "USP54 ΔΔCT", "setting": "vs DMSO", "value": 0.023}, {"measurement": "VLDLR ΔΔCT", "setting": "vs DMSO", "value": 3.859}]}]}
